Legend:
[1] = system: Mycoplasma gallisepticum (MG) S6; test: In vitro sensitivity test (liquid dilution method); assay type: cell-based; details: 37°C, 7 days
[2] = system: Mycoplasma gallisepticum (MG) T-7-T, TS-resistant strain isolated from the field; test: In vitro sensitivity test (liquid dilution method); assay type: cell-based; details: 37°C, 7 days
[3] = system: Mycoplasma hyopneumoniae (Mh) ST-11; test: In vitro sensitivity test (liquid dilution method); assay type: cell-based; details: 37°C, 7 days
[4] = system: Mycoplasma synoviae (MS) 1853; test: In vitro sensitivity test (liquid dilution method); assay type: cell-based; details: 37°C, 7 days
Outline: (§1)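 MS (liquid dilution): Frey medium + 12 % pig-serum + 0.01 % βNAD, 37°C, 7 days. S.au (agar dilution): Mueller Hinton agar, 37°C, 20 to 24 hours. P.pis: heart infusion agar + 1.5 % NaCl, 25°C, 40 to 48 hours. All strains animal-origin.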

[5] = system: Mycoplasma synoviae (MS) F10-2as; test: In vitro sensitivity test (liquid dilution method); assay type: cell-based; details: 37°C, 7 days
Outline: as §1

[6] = system: Bordetella bronchiseptica (B.br) ABU-1; test: In vitro sensitivity test (agar dilution method); assay type: cell-based; details: 37°C, 20 to 24 hours
[7] = system: Escherichia coli (E.coli) E-17, chicken-origin strain isolated from the field; test: In vitro sensitivity test (agar dilution method); assay type: cell-based; details: 37°C, 20 to 24 hours
Outline: (§2)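 Read-out is visual growth after incubation. Conditions were 37°C for 7 days in Frey medium (12 % pig-serum, 0.01 % βNAD; liquid dilution) for MS, and 37°C for 20 to 24 hours on Mueller Hinton agar for S.au. P.pis used 25°C, 40 to 48 hours, on 1.5 % NaCl heart infusion agar.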

[8] = system: Escherichia coli (E.coli) JC-2; test: In vitro sensitivity test (agar dilution method); assay type: cell-based; details: 37°C, 20 to 24 hours
[9] = system: Hemophilus paragallinarum (H.pg) 221; test: In vitro sensitivity test (agar dilution method); assay type: cell-based; details: agar dilution, 37°C, 20 hours, 10 % CO₂
[10] = system: Hemophilus paragallinarum (H.pg) S-1; test: In vitro sensitivity test (agar dilution method); assay type: cell-based; details: agar dilution, 37°C, 20 hours, 10 % CO₂
[11] = system: Hemophilus pleuropneumonia (H.pp) M-1; test: In vitro sensitivity test (agar dilution method); assay type: cell-based; details: 37°C, 20 hours, 10 % CO₂
[12] = system: Salmonella typhimurium (S.typhi) 13311; test: In vitro sensitivity test (agar dilution method); assay type: cell-based; details: 37°C, 20 to 24 hours
[13] = system: Staphylococcus aureus (S.au) 209P; test: In vitro sensitivity test (agar dilution method); assay type: cell-based; details: 37°C, 20 to 24 hours
Outline: as §2

[14] = system: Pasteurella piscicida (P.pis) No. 2; test: In vitro sensitivity test; assay type: cell-based; details: 25°C, 40 to 48 hours
Outline: as §1

[15] = system: Streptococcus sp (Str.sp) SNO6119; test: In vitro sensitivity test; assay type: cell-based; details: 25°C, 40 to 48 hours
[16] = system: TS-resistant MG; test: Experimental MG infection to chicken, through bait; assay type: in vivo; details: 9-days chicken; for Number of infected fowl/Number of fowl tested: 6.6 x 10³ CFU/fowl, dissection 6th day after inoculation; for Number of fowl having air sack lesions / Infectious index Left air sack + / Infectious index Left air sack ++ / Infectious index Left air sack +++ / Infectious index Left air sack - / Infectious index Right air sack + / Infectious index Right air sack ++ / Infectious index Right air sack +++ / Infectious index Right air sack -: 1.8 x 10³ CFU/fowl; for Infectious index Left air sack + / Infectious index Left air sack ++ / Infectious index Left air sack +++ / Infectious index Left air sack - / Infectious index Right air sack + / Infectious index Right air sack ++ / Infectious index Right air sack +++ / Infectious index Right air sack -: count of fowl
[17] = system: H.pp (otherwise called Actinobacillus pleuropneumoniae) strain M-1; test: Experimental H.pp infection to pig, through injection; assay type: in vivo; details: injection to thigh muscle one time, Dose 5 mg/kg; dissection 6 days after inoculation
Procedure: In these experiments, the compound (I) was applied to the designated animals by (1) oral administration, (2) incorporation into baits and (3) intramuscular injection, the details of which are explained below.
(3) Preparation of the MG infected fowls was performed in the same manner as in (1) above. Infection of H.pp (otherwise called Actinobacillus pleuropneumoniae) to cause pleuropneumonia in pig was performed by inoculating 5 ml of a fresh cultured strain (i.e. M-1) of H.pp to each nasopharyngeal of some 45 days pigs, each weighing 4 to 9 kg (4 to 5 pigs/group), followed by injection of the test compounds to each thigh muscle at a designated volume one time. Pigs were dissected 6 days after the inoculation. The evaluation of the antimicrobial activity was made by observation of the pneumonia symptomes in air sacs, number of dead body and degree of nodosity in air sacks on dissection.

Cl.Nc1c(F)c(N2C[C@@H]3CC[C@@H](N)[C@@H]3C2)c(F)c2c1c(=O)c(C(=O)O)cn2C1CC1 (relative stereo) [I-16]
In vitro Sensitivity Test MG S6 [1]: <0.0313 µg/mL | In vitro Sensitivity Test MG T-7-T [2]: 0.00313 µg/mL | In vitro Sensitivity Test Mh ST-11 [3]: <0.025 µg/mL | In vitro Sensitivity Test MS 1853 [4]: 0.39 µg/mL | In vitro Sensitivity Test MS F10-2as [5]: 0.2 µg/ml | In vitro Sensitivity Test B.br ABU-1 [6]: 1.56 µg/mL | In vitro Sensitivity Test E.coli E-17 [7]: 0.025 µg/ml | In vitro Sensitivity Test E.coli JC-2 [8]: 0.05 µg/mL | In vitro Sensitivity Test H.pg 221 [9]: 0.2 µg/mL | In vitro Sensitivity Test H.pg S-1 [10]: 0.2 µg/mL | In vitro Sensitivity Test H.pp M-1 [11]: 0.2 µg/mL | In vitro Sensitivity Test S.typhi 13311 [12]: 0.05 µg/mL | In vitro Sensitivity Test S.au 209P [13]: 0.025 µg/mL | In vitro Sensitivity Test P.pis No. 2 [14]: 0.39 µg/mL | In vitro Sensitivity Test Str.sp SNO6119 [15]: 0.39 µg/mL | Number of infected fowl/Number of fowl tested ([16]; bait 3.13 ppm/Day): 2/7 | Number of fowl having air sack lesions ([16]; bait 15.6 ppm/Day): 3 | Number of fowl having air sack lesions ([16]; bait 31.3 ppm/Day): 3 | Number of fowl having air sack lesions ([16]; bait 62.5 ppm/Day): 0 | Number of infected fowl/Number of fowl tested ([16]; bait 62.5 ppm/Day): 0/7 | Number of infected fowl/Number of fowl tested ([16]; bait 125 ppm/Day): 0/7 | Infectious index Left air sack + ([16]; bait 15.6 ppm/Day): 0 | Infectious index Left air sack ++ ([16]; bait 15.6 ppm/Day): 0 | Infectious index Left air sack +++ ([16]; bait 15.6 ppm/Day): 0 | Infectious index Left air sack - ([16]; bait 15.6 ppm/Day): 5 | Infectious index Right air sack + ([16]; bait 15.6 ppm/Day): 1 | Infectious index Right air sack ++ ([16]; bait 15.6 ppm/Day): 2 | Infectious index Right air sack +++ ([16]; bait 15.6 ppm/Day): 0 | Infectious index Right air sack - ([16]; bait 15.6 ppm/Day): 2 | Infectious index Left air sack + ([16]; bait 31.3 ppm/Day): 0 | Infectious index Left air sack ++ ([16]; bait 31.3 ppm/Day): 0 | Infectious index Left air sack +++ ([16]; bait 31.3 ppm/Day): 0 | Infectious index Left air sack - ([16]; bait 31.3 ppm/Day): 5 | Infectious index Right air sack + ([16]; bait 31.3 ppm/Day): 1 | Infectious index Right air sack ++ ([16]; bait 31.3 ppm/Day): 2 | Infectious index Right air sack +++ ([16]; bait 31.3 ppm/Day): 0 | Infectious index Right air sack - ([16]; bait 31.3 ppm/Day): 2 | Infectious index Left air sack + ([16]; bait 62.5 ppm/Day): 0 | Infectious index Left air sack ++ ([16]; bait 62.5 ppm/Day): 0 | Infectious index Left air sack +++ ([16]; bait 62.5 ppm/Day): 0 | Infectious index Left air sack - ([16]; bait 62.5 ppm/Day): 5 | Infectious index Right air sack + ([16]; bait 62.5 ppm/Day): 0 | Infectious index Right air sack ++ ([16]; bait 62.5 ppm/Day): 0 | Infectious index Right air sack +++ ([16]; bait 62.5 ppm/Day): 0 | Infectious index Right air sack - ([16]; bait 62.5 ppm/Day): 5 | Number of pig having nodi/Number of pig tested [17]: 0/4

Source: patent EP0429304A2, “Pyridone-carboxylic acid derivatives and their use as veterinary medicines” (SHIONOGI SEIYAKU KABUSHIKI KAISHA trading under the name of …, priority 1989, dated 1991)
